Key:
[1] = system: WT and mutants (Leu to Ala, Leu to Val and Leu to Ile) of Brd2(2); test: ITC of compound into protein (FIG. 16); format: binding, human; details: 250 μM compound into 25 μM protein; result in words
Procedure: To investigate the utility of the new compounds further, the inventors performed isothermal titration experiments by titrating 250 μM compound solutions (AL, ME-Am1, ET-Am1, ME-Am2, ET-Am2, 9-ME, 9-ET, 9-ME-Am1 and 9-ET-Am1) 25 μM protein solutions (WT and mutants (Leu to Ala, Leu to Val and Leu to Ile) of Brd2(2)).
(§1) ITC experiments were carried out on a ITC200 instrument from MicroCal™ Experiments were conducted at 3 different temperatures 15° C., 25° C. and 30° C., while stirring at 1000 rpm. Buffers of proteins, peptide and compounds were matched to 20 mM HEPES pH 7.5 at 25° C. and 100 mM NaCl. Frozen protein was buffer exchanged as described for the DSF experiments. Each titration comprised 1 initial injection of 0.4 μl lasting 0.8 s, followed by 19 injections of 2 μl lasting 4 s each at 2 min intervals. The initial injection was discarded during data analysis. Standard and reverse titrations were conducted depending on the binding partners.
(§2) All the data was fitted to a single binding site model using the Microcal LLC ITC200 Origin software provided by the manufacturer to yield enthalpies of binding (ΔH) and binding constants (Kas). Further thermodynamic parameters were calculated from these values (changes in entropy ΔS, changes in free energy AG and dissociation constants (Kds)).

[2] = system: Brd2(1) and (2) wild type and leucine to alanine, valine and isoleucine mutants; test: DSF thermal stabilization (FIG. 15); format: binding, human; details: result in words
Procedure: (§3) DSF assays were performed on a LightCycler®480 from Roche or a Mx3005P Real Time PCR machine from Stratagene. […] SYPRO®Orange from Invitrogen Molecular Probes® was used as a reporter dye to monitor the denaturing process of the proteins. Samples were assayed on a 96-well plate with final protein concentrations of 2 μM for the LightCycler®480 and 6 μM for Mx3005P. Compounds were added at a final concentration of 10 μM for the LightCycler®480 and 30 μM for Mx3005P, while the tetra acetylated histone peptide was added to a final concentration of 100 μM and 300 μM respectively. […] The temperature was raised with a step of 0.6° C. per minute from 37° C. to 95° C. with the LightCycler®480 collecting 39 measurements per ° C., and 1° C. per minute from 25° C. to 95° C. with Mx3005P, collecting fluorescence readings at the end of each interval. Each sample was run in triplicates.
(§4) Collected data was analysed by IGOR Pro 6, a scientific software tool from Wave Metrics, Inc. Analysis was done following the recommendations of Niesen et al.. Fluorescence intensity was plotted as a function of temperature, generating a sigmoidal curve described by a two-state transition from folded to unfolded protein. Curves were fitted by the following sigmoidal equation: […]
(§5) A1 and A2 are the values of minimum and maximum intensities, respectively, x0 is the inflection point and dx is the rate. Fitted curves were differentiated in IGOR Pro 6 and the maximum of the first derivative was identified using the same program. These values correspond to the inflection points of the transition curves and thus to the melting temperatures of the proteins (Tm).

[3] = molecular target: T1, Brd2(1)*(Leu110-Ala) (Homo sapiens, UniProt P25440, L110A); test: ITC reverse titration of protein into compound; format: binding; set-up: Plasmids of the eight single BET bromodomain constructs Brd2(1), Brd2(2), Brd3(1), Brd3(2), Brd4(1), Brd4(2), Brdt(1) and Brdt(2); His6 (N); made in house; host or cells: E. coli BL21(DE3); details: for ΔH Brd2(1)* (Leu110-Ala): ITC 30° C., 1% DMSO
Procedure: as §1
(§6) Reverse titrations were conducted to test the binding of the known ligands and the novel chemical probes to the wild types and the mutants. Experiments were carried out either at 25° C. or 30° C. […] In cases where the compound was solubilized in dimethyl sulfoxide, DMSO concentration was adjusted to 1% both in the syringe and in the cell.
as §2

[4] = molecular target: T2, Brd2(2)*(Leu383-Ala) (Homo sapiens, UniProt P25440, L383A); test: ITC reverse titration of protein into compound; format: binding; set-up: Plasmids of the eight single BET bromodomain constructs Brd2(1), Brd2(2), Brd3(1), Brd3(2), Brd4(1), Brd4(2), Brdt(1) and Brdt(2); His6 (N); made in house; host or cells: E. coli BL21(DE3); details: ITC 30° C., 1% DMSO; for Kd: Kd Brd2(2)* (Leu383-Ala)
Procedure: as §1, §6, §2

[5] = Solubility observations; details: observation in words
[6] = molecular target: T1, Brd2(1)*(Leu110-Ala); test: DSF thermal shift; format: binding; set-up: Plasmids of the eight single BET bromodomain constructs Brd2(1), Brd2(2), Brd3(1), Brd3(2); His6 (N); made in house; host or cells: E. coli BL21(DE3); details: mutant
Procedure: as §3, §4, §5

[7] = molecular target: T2, Brd2(2)*(Leu383-Ala); test: DSF thermal shift; format: binding; set-up: Plasmids of the eight single BET bromodomain constructs Brd2(1), Brd2(2), Brd3(1), Brd3(2); His6 (N); made in house; host or cells: E. coli BL21(DE3); details: mutant
Procedure: as §3, §4, §5

[8] = molecular target: T3, Brd4(2) (Homo sapiens, UniProt O60885); test: DSF thermal shift; format: binding; details: wild type
T3 construct: Plasmids of the eight single BET bromodomain constructs Brd2(1), Brd2(2), Brd3(1), Brd3(2), Brd4(1), Brd4(2), Brdt(1) and Brdt(2); His6 (N); made in house; host or cells: E. coli BL21(DE3)

[9] = molecular target: T4, brd4(1)L094A (Homo sapiens, UniProt O60885, L94A); test: DSF thermal shift; format: binding; details: mutant
T4 construct: Plasmids of the eight single BET bromodomain constructs Brd2(1), Brd2(2), Brd3(1), Brd3(2), Brd4(1), Brd4(2), Brdt(1) and Brdt(2); His6 (N); made in house; host or cells: E. coli BL21(DE3)

[10] = molecular target: T5, Brd2(2) (Homo sapiens, UniProt P25440); test: DSF thermal shift; format: binding; details: wild type
T5 construct: Plasmids of the eight single BET bromodomain constructs Brd2(1), Brd2(2), Brd3(1), Brd3(2); His6 (N); made in house; host or cells: E. coli BL21(DE3)

[11] = molecular target: T6, Brd2(1) (Homo sapiens, UniProt P25440); test: DSF thermal shift; format: binding; details: wild type
T6 construct: Plasmids of the eight single BET bromodomain constructs Brd2(1), Brd2(2), Brd3(1), Brd3(2); His6 (N); made in house; host or cells: E. coli BL21(DE3)

[12] = molecular target: T7, Brd4(1) (Homo sapiens, UniProt O60885); test: DSF thermal shift; format: binding; details: wild type
T7 construct: Plasmids of the eight single BET bromodomain constructs Brd2(1), Brd2(2), Brd3(1), Brd3(2), Brd4(1), Brd4(2), Brdt(1) and Brdt(2); His6 (N); made in house; host or cells: E. coli BL21(DE3)

[13] = molecular target: T8, brd4(2)L387A (Homo sapiens, UniProt O60885, L387A); test: DSF thermal shift; format: binding; details: mutant
T8 construct: Plasmids of the eight single BET bromodomain constructs Brd2(1), Brd2(2), Brd3(1), Brd3(2), Brd4(1), Brd4(2), Brdt(1) and Brdt(2); His6 (N); made in house; host or cells: E. coli BL21(DE3)

[14] = molecular target: T5, Brd2(2); test: ITC reverse titration of protein into compound; format: binding; details: ITC 30° C., 1% DMSO; for Kd: Kd Brd2(2)
Procedure: as §1, §6, §2

[15] = molecular target: T6, Brd2(1); test: ITC reverse titration of protein into compound; format: binding; details: for ΔH Brd2(1): ITC 30° C., 1% DMSO
Procedure: as §1, §6, §2

T1 sequence (P25440 74-180 L110A limits assumed): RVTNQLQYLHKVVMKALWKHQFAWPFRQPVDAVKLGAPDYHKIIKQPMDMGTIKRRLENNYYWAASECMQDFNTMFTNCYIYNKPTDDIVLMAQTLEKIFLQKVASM
T2 sequence (P25440 344-453 L383A limits assumed): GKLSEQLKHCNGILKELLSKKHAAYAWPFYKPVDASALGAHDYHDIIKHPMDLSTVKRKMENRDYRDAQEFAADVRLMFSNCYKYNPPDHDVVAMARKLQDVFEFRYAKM
T5 sequence (P25440 344-453 limits assumed): as the sequence (P25440 344-453 L383A limits assumed) above, with A40L counted along it
T6 sequence (P25440 74-180 limits assumed): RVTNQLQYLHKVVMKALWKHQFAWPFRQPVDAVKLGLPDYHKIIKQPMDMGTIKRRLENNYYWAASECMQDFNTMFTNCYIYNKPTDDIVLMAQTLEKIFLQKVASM

| Structure (SMILES) | Selectivity for Brd2(2) mutants relative to wild type by ITC (FIG. 16) [1] | Thermal stabilization of Brd2 mutants versus wild types (FIG. 15) [2] | Kd [3] | ΔH Brd2(1)* (Leu110-Ala) [3] | ΔH Brd2(2)* (Leu383-Ala) [4] | Kd [4] | Solubility [5] | ΔTm Brd2(1)*(Leu110-Ala) [6] | ΔTm Brd2(2)*(Leu383-Ala) [7] | ΔTm Brd4(2) [8] | ΔTm Brd4(1)* (L094A) [9] | ΔTm Brd2(2) [10] | ΔTm Brd2(1) [11] | ΔTm Brd4(1) [12] | ΔTm Brd4(2)* (L387A) [13] | ΔH Brd2(2) [14] | Kd [14] | Kd [15] | ΔH Brd2(1) [15] |
| --- | --- | --- | --- | --- | --- | --- | --- | --- | --- | --- | --- | --- | --- | --- | --- | --- | --- | --- | --- |
| CCNC(=O)[C@H](CC)[C@@H]1N=C(c2ccc(Cl)cc2)c2ccc(OC)cc2-n2c(C)nnc21 (racemic) [Compound 9-ET-Am1, (+−) (R)-2-((S)-6-(4-chlorophenyl)-9-methoxy-1-methyl-4H-benzo[f][1,2,4]triazolo[4,3-a][1,4]diazepin-4-yl)-N-ethylbutanamide] | higher selectivity for the mutants relative to wild types | smaller shifts | – | – | – | – | – | – | – | – | – | – | – | – | – | – | – | – | – |
| CCC[C@@H](C(=O)OC)[C@@H]1N=C(c2ccc(Cl)cc2)c2cc(OC)ccc2-n2c(C)nnc21 (racemic) [Compound 12, (+−)-methyl (R)-2-((S)-6-(4-chlorophenyl)-8-methoxy-1-methyl-4H-benzo[f][1,2,4]triazolo[4,3-a][1,4]diazepin-4-yl)pentanoate] | – | smaller shifts | 400 ± 82.4 nM | −11160 ± 241.8 cal/mol | -7.095 ± 0.1069 kcal/mol | 265 ± 53.9 nM | lower than that for compounds with smaller bumps | 4.0 ± 0.4 K | 5.0 ± 0.1 K | 3.2 ± 0.7 K | 6.4 ± 0.8 K | 2.1 ± 0.1 K | 1.7 ± 0.2 K | 2.9 ± 0.7 K | 6.7 ± 0.2 K | -9.52 ± 0.5449 kcal/mol | 2390 ± 1480 nM | 5880 ± 1210 nM | -11.49 ± 1.048 kcal/mol |
| COC(=O)[C@H](CC1CC1)[C@@H]1N=C(c2ccc(Cl)cc2)c2cc(OC)ccc2-n2c(C)nnc21 (racemic) [Compound 13, (+−)-methyl (R)-2-((S)-6-(4-chlorophenyl)-8-methoxy-1-methyl-4H-benzo[f][1,2,4]triazolo[4,3-a][1,4]diazepin-4-yl)-3-cyclopropylpropanoate] | – | – | 360 ± 68.2 nM | −9662 ± 162.7 cal/mol | -7.868 ± 0.3365 kcal/mol | 667 ± 330 nM | lower than that for compounds with smaller bumps | 3.7 ± 0.2 K | 5.3 ± 0.3 K | 2.0 ± 1.0 K | 5.6 ± 0.3 K | 3.7 ± 0.6 K | 0.5 ± 0.3 K | 1.2 ± 0.6 K | 5.8 ± 0.1 K | -2.089 ± 0.211 kcal/mol | 3320 ± 1860 nM | 4310 ± 3050 nM | -3.402 ± 0.4335 kcal/mol |
